Columns and labels:
ME180 cells = assay: XTT cell viability in the CD4-independent transmission assay
Procedure: ME180 cells, a CD4 negative, X4 positive cervical epithelial cell line is maintained in RPMI 1640 supplemented with 10% fetal bovine serum, glutamine and antibiotics. Twenty-four h prior to the assay ME180 cells are trypsonized, washed and seeded in 96-well flat bottom microtiter plates at a density of 2×10^3 cells per well. On the day of the assay, H9 cells chronically infected with the SK1 clinical isolate of HIV-1 (H9-SK1) are treated with freshly made mitomycin C (200 μg/ml) for 60 minutes at 37° C. This concentration of mitomycin C is sufficient to result in cell death, but allows virus transmission to occur. After mitomycin C treatment the H9-SK1 cells are washed three times with tissue culture medium. Test compounds are added to the ME180 monolayer followed by 2×10^4 H9-SK1 cells. The ME180 cells are co-cultured with H9-SK-1 cells and test material for 4 h, and the H9-SK1 cells are removed by washing the ME180 monolayer three times with PBS. At 24 and 48 h post assay initiation the wells are again washed three times with PBS to ensure removal of the H9-SK1 cells, and culture continued in test material free media. At six days post-co-cultivation, supernatants are collected and evaluated for p24 antigen expression by ELISA. Cell viability is assessed by XTT dye reduction. […] Testing in the presence of mucin is carried out by addition of 200 µg/ml of porcine mucin (Sigma Chemical Co., St Louis, Mo.) to the transmission reactions. Transmission intervals and washing without replacement of mucin or compound are carried as described above. All determinations are performed in triplicate with serial ½ Log10 dilution of the test materials.
TC50 values for the test materials are derived by measuring the reduction of the tetrazolium dye XTT (2,3-bis(2-methoxy-4-nitro-5-sulfophenyl)-5-[(phenylamino)carbonyl]-2H-tetrazolium hydroxide) in replicate microtiter plates containing cell and compound without virus. […] XTT solution is prepared daily as a stock of 1 mg/mL in PBS. Phenazine methosulfate (PMS) solution is prepared at 15 mg/mL in PBS and stored in the dark at −20° C. XTT/PMS stock is prepared immediately before use by diluting the PMS 1:100 into PBS and adding 40 µl per mL of XTT solution. Fifty microliters of XTT/PMS are added to each well of the plate and the plate incubated for 4 h at 37° C. The 4 h incubation has been empirically determined to be within the linear response range for […] dye reduction with the indicated numbers of cells for each assay. Adhesive plate sealers are used in place of the lids, the sealed plate is inverted several times to mix the soluble formazan product and the plate is read at 450 nm with a Molecular Devices Vmax 96 well plate format spectrophotometer.
Dextran sulfate (positive) and dextran (negative) are used as controls for the CD4-dependent and CD4-independent HIV transmission inhibition assays. […] Commercially available Penicillin (10,000 U/ml) Streptomycin (10.0 mg/ml) solution is used as a positive control for the Lactobacillus sensitivity assay.

Lactobacillus crispatus = assay: Lactobacillus growth sensitivity assay; type: cell-based; conditions: 24 h growth, OD 490 nm
Procedure: (§1) Lactobacillus crispatus and Lactobacillus jensenii were obtained from the American Type Tissue Culture Collection and grown in Lactobacilli MRS broth (Difco, Fisher Scientific, Pittsburgh, Pa.). This medium allows efficient growth of the Lactobacilli under anaerobic conditions. Bacillus stocks are produced and frozen in 15% glycerol at −80° C. for use in the sensitivity assay. To assess the effect of compounds on L. crispatus and L. jensenii growth, 10 ml of MRS media is inoculated with a stab from the glycerol bacterial stock. The culture is placed in a Gas Pak CO2 bag and incubated for 24 h at 37° C. The next day the lactobacillus cultures are diluted to an OD of 0.06 at a wavelength of 670 nm. Compounds are diluted and placed into a 96 well flat bottomed plate and the Lactobacillus sp. added. Commercially available Penicillin/Streptomycin solution at a high test concentration of 1.25 U/ml and 1.25 µg/ml, respectively, are used as the positive control. The plates are again incubated for 24 h at 37° C. in a Gas Pak CO2 bag and bacterial growth determined by measurement of optical density at 490 nm in a molecular devices plate reader. All determinations are performed with 6½ log dilutions from a high test concentration in triplicate.

Lactobacillus jensenii = assay: Lactobacillus growth sensitivity assay; type: cell-based; conditions: 24 h growth, OD 490 nm
Procedure: as §1

BHAlyslys2lys4lys8lys16[NH—CO—CH2)O-3,6-Naphthyl-(SO3Na)2]32 [SPL-7013]
>100 µg/mL: CD4-Independent Transmission Assay TC50 (ME180 cells) | L. crispatus (ID50) (Lactobacillus crispatus) | L jensenii (ID50) (Lactobacillus jensenii)

From patent US8158575B2, “Agent for the prevention and treatment of sexually transmitted diseases-I” (priority 2001, dated 2012)
